Key:
HepG2 cells = test: MTS assay (Example 1); type: cell-based; conditions: Homo sapiens, positive control 20 μM, 24 h, mean±SEM, n=3, read-out: HepG2 cell viability
Experimental: (§1) • (a) Solvent extraction: Four different solvents were used, namely, methanol, hexane:ethyl acetate (39:1), ethyl acetate, and water. Briefly, 2 g of the test material (MH/GL) were dissolved in 80 ml of appropriate solvents (methanol/hexane:ethyl acetate/ethyl acetate), sonicated twice for 20 min at room temperature (RT), and centrifuged at 3000 rpm for 10 min. The supernatant was collected and evaporated using a rotary evaporation system at 65° C. The concentrated extract was subjected to nitrogen evaporation to remove all the solvent, then dissolved in DMSO to a final concentration of 60 mg/ml. For water extraction, 2 g of the test material was dissolved in 80 ml water, sonicated twice for 20 min at RT, kept at RT for three days, vortexed, and centrifuged at 3000 rpm for 10 min. The supernatant was then freeze-dried into powder. The powder was dissolved in DMSO to a final concentration of 60 mg/ml. • (b) MTS assay: The potential inhibitory effects of MH and GL extracts on HepG2 and MDA-MB-231 cells were measured using MTS assay. Briefly, 6000 cells were seeded and treated with different concentrations (6.25, 12.5, 25, 50, 100, 150, and 300 μg/ml) of extracts for 24 h. Then, MTS/PMS reagent was added and absorbance was measured at 490 nm using a plate reader. Sorafenib (20 μM) and doxorubicin (50 μM) were used as positive controls for HepG2 and MDA-MB-231 cells, respectively. […]

MDA-MB-231 cells = test: MTS assay (Example 1); type: cell-based; conditions: Homo sapiens, positive control 50 μM, 24 h, mean±SEM, n=3, read-out: MDA-MB-231 cell viability
Experimental: as §1

Structure (SMILES)	viability at 20 µM (HepG2 cells) [%]	viability at 50 µM (MDA-MB-231 cells) [%]
CNC(=O)c1cc(Oc2ccc(NC(=O)Nc3ccc(Cl)c(C(F)(F)F)c3)cc2)ccn1 [sorafenib]	26 ± 3.7	
COc1cccc2c1C(=O)c1c(O)c3c(c(O)c1C2=O)C[C@@](O)(C(=O)CO)C[C@@H]3O[C@H]1C[C@H](N)[C@H](O)[C@H](C)O1 [doxorubicin]		24.4 ± 5.1

From patent US20230293611A1, “NATURAL PRODUCT EXTRACTS AND METHODS OF USE THEREOF” (THE ADORED BEAST APOTHECARY LTD., priority 2020, published 2023)
